The source of these data is US20230348369A1 (Cytokinetics, Inc., priority 2020, published 2023).

SMILES strings stand for the structures. Read-outs that look alike come from different tables or passages of the source.

This assay deals with human NAMPT (Homo sapiens, UniProt P43490). Kind of assay: Human recombinant enzyme assay (NMN fluorescence biochemical assay, activation of NAMPT). The gist of the method:
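Activation of recombinant human NAMPT (6 nM) with 2.5 mM ATP, 20 μM PRPP and 150 μM nicotinamide in 50 mM HEPES pH 7.2, 1 mM DTT, 1 mM CHAPS, 50 mM NaCl, 100 mM MgCl2; 60 min, ambient temperature. NMN formed was derivatized with acetophenone/KOH/formic acid, fluorescence read at 355/460 nm after 40 min.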

[1] abbreviates: Table A, human recombinant NAMPT, NMN formation, 60 min.
Where [2] appears, read: Table A, human recombinant NAMPT, NMN formation, 60 min, read-out: EC50 Human.

Chain of human NAMPT (P43490 whole entry): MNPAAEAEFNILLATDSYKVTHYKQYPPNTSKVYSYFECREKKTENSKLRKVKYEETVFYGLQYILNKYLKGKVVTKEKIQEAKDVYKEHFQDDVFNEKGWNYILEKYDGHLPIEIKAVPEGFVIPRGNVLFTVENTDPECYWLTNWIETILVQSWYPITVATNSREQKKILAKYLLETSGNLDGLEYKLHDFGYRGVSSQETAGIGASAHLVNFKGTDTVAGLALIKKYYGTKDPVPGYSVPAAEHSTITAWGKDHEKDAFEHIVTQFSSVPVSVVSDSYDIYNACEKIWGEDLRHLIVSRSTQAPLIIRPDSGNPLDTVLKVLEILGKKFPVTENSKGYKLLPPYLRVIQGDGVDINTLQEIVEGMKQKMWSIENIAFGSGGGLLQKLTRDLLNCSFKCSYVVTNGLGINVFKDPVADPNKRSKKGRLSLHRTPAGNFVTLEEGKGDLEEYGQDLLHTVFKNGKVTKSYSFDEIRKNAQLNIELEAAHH

The term EC50 denotes the concentration at which the effect is half-maximal. Turning to `O=C(NCCCCC1CCN(C(=O)c2ccccc2)CC1)NCc1ccncc1` [Compound 1, 1-(4-(1-benzoylpiperidin-4-yl)butyl)-3-(pyridin-4-ylmethyl)urea], the “AC1.4 Human” value under setting [1] came to 0.1 µM. Moreover, under setting [2], the concentration giving a half-maximal response (EC50) came out at 0.8 µM.

Consider `COc1ccc(CNC(=O)NC2CC3(CC(Cc4ccccc4C)C3)C2)cc1` (stereo not drawn) [Compound 336, 1-(4-methoxybenzyl)-3-(6-(2-methylbenzyl)spiro[3.3]heptan-2-yl)urea], for which, under setting [1], the “AC1.4 Human” value amounted to 0.7 µM. Also, the EC50 under setting [2] was 2.1 µM.

`COc1ccc(CNC(=O)NC2CC3(C2)CC(C(=O)NC(C)(C)c2ccccc2)C3)cc1` (stereo not drawn) [Compound 70, 6-(3-(4-methoxybenzyl)ureido)-N-(2-phenylpropan-2-yl)spiro[3.3]heptane-2-carboxamide]: the EC50 was found to be 38.6 µM. For the same compound, under setting [1], the “AC1.4 Human” value came out at 3.9 µM.

As to `Cc1ccc(C(=O)N2CC3(CC(NC(=O)NCc4cn[nH]c4)C3)C2)cc1` [Compound 227, 1-((1H-pyrazol-4-yl)methyl)-3-(2-(4-methylbenzoyl)-2-azaspiro[3.3]heptan-6-yl)urea], the “AC1.4 Human” value under setting [1] worked out at 2.0 µM. Besides, the EC50 under setting [2] is 33.8 µM.

As to `COc1ccc(CNC(=O)NC2CC3(C2)CN(C(=O)Nc2cccc(C#N)n2)C3)cc1` [Compound 132, N-(6-cyanopyridin-2-yl)-6-(3-(4-methoxybenzyl)ureido)-2-azaspiro[3.3]heptane-2-carboxamide], the EC50 came to 42.8 µM. Further, under setting [1], the “AC1.4 Human” value was 15.0 µM.

In the case of `Cc1ccc(CC(=O)N2CCC(CCCCNC(=O)NCc3ccc(Cl)cc3)CC2)cn1` [Compound 311, 1-(4-chlorobenzyl)-3-(4-(1-(2-(6-methylpyridin-3-yl)acetyl)piperidin-4-yl)butyl)urea], the “AC1.4 Human” value under setting [1] came to 1.2 µM. Also, the EC50 under setting [2] amounted to 3.4 µM.

As for `Cc1ccc(CC2CC3(C2)CC(NC(=O)NCc2ccc(Cl)cc2)C3)cn1` (stereo not drawn) [Compound 347, 1-(4-chlorobenzyl)-3-(6-((6-methylpyridin-3-yl)methyl)spiro[3.3]heptan-2-yl)urea], the “AC1.4 Human” value under setting [1] was determined as 2.2 µM. Further, under setting [2], the EC50 turned out to be 2.4 µM.

For the compound `N#Cc1cnn(CC2CC3(C2)CC(NC(=O)NCc2ccc(Cl)cc2)C3)c1` (stereo not drawn) [Compound 333, 1-(4-chlorobenzyl)-3-(6-((4-cyano-1H-pyrazol-1-yl)methyl)spiro[3.3]heptan-2-yl)urea], the EC50 came to 4.4 µM. In addition, under setting [1], the “AC1.4 Human” value amounted to 1.8 µM.

On to `O=C1CC(C(=O)NCC2CC3(C2)CC(NC(=O)NCc2ccc(Cl)cc2)C3)CCN1` (stereo not drawn) [Compound 252, N-((6-(3-(4-chlorobenzyl)ureido)spiro[3.3]heptan-2-yl)methyl)-2-oxopiperidine-4-carboxamide], for which the “AC1.4 Human” value under setting [1] worked out at 2.8 µM. In addition, under setting [2], the EC50 was found to be 9.1 µM.

On to `CC(C)(C)OC(=O)N1CCC2(CC1)CC2CNC(=O)NCc1cnco1` (stereo not drawn) [Compound 30, tert-butyl 1-((3-(oxazol-5-ylmethyl)ureido)methyl)-6-azaspiro[2.5]octane-6-carboxylate], for which, under setting [2], the EC50 was 37.9 µM.

For `COc1ccc(CNC(=O)N[C@H]2C[C@@]3(CCN(C(=O)OC(C)(C)C)C3)C2)cc1` [Compound 82, tert-butyl (2s,4r)-2-(3-(4-methoxybenzyl)ureido)-6-azaspiro[3.4]octane-6-carboxylate], the “AC1.4 Human” value under setting [1] came to 10.7 µM. Further, the EC50 under setting [2] amounted to 52.3 µM.

Consider `COc1ccc(CNC(=O)NC2CC3(C2)CN(C(=O)c2ccc(Cl)cc2)C3)cc1` [Compound 158, 1-(2-(4-chlorobenzoyl)-2-azaspiro[3.3]heptan-6-yl)-3-(4-methoxybenzyl)urea], for which the “AC1.4 Human” value under setting [1] was 2.7 µM. Also, the EC50 under setting [2] is 39.1 µM.

For the compound `COc1ccc(CNC(=O)NC2CC3(C2)CC(C(=O)N[C@H]2CCc4ccccc42)C3)cc1` (stereo partly drawn) [Compound 92, (S)-N-(2,3-dihydro-1H-inden-1-yl)-6-(3-(4-methoxybenzyl)ureido)spiro[3.3]heptane-2-carboxamide], the “AC1.4 Human” value under setting [1] is 2.9 µM. Moreover, the EC50 under setting [2] is 13.5 µM.

`O=C(NCc1ccc(Cl)cc1)NC1CC2(C1)CC(NS(=O)(=O)c1cccnc1)C2` (stereo not drawn) [Compound 213, N-(6-(3-(4-chlorobenzyl)ureido)spiro[3.3]heptan-2-yl)pyridine-3-sulfonamide]: under setting [1], the “AC1.4 Human” value was found to be 6.8 µM. Moreover, under setting [2], the 50% effective concentration (EC50) was 6.8 µM.

In the case of `O=C(NCc1ccc(Cl)cc1)NC1CC2(C1)CC(NC(=O)c1ccccc1O)C2` (stereo not drawn) [Compound 208, N-(6-(3-(4-chlorobenzyl)ureido)spiro[3.3]heptan-2-yl)-2-hydroxybenzamide], the “AC1.4 Human” value under setting [1] is 9.6 µM. Further, under setting [2], the EC50 was determined as 11.8 µM.

Take `COc1ccc(CNC(=O)NC2CC3(C2)CC(C(=O)Nc2ccc4nncn4c2)C3)cc1` (stereo not drawn) [Compound 89, N-([1,2,4]triazolo[4,3-a]pyridin-6-yl)-6-(3-(4-methoxybenzyl)ureido)spiro[3.3]heptane-2-carboxamide]: the “AC1.4 Human” value under setting [1] came out at 10.3 µM. Further, the 50% effective concentration (EC50) under setting [2] was 33.7 µM.

For `O=C(NCCCCN1CCN(C(=O)c2ccccc2)CC1)NCc1ccc(Cl)cc1` [Compound 317, 1-(4-(4-benzoylpiperazin-1-yl)butyl)-3-(4-chlorobenzyl)urea], the “AC1.4 Human” value under setting [1] came out at 4.2 µM. In addition, the half-maximal effective concentration (EC50) under setting [2] amounted to 25.1 µM.

On to `COc1ccc(CNC(=O)NC2CC3(C2)CC(C(=O)N2CCN(Cc4ccncc4)CC2)C3)cc1` (stereo not drawn) [Compound 124, 1-(4-methoxybenzyl)-3-(6-(4-(pyridin-4-ylmethyl)piperazine-1-carbonyl)spiro[3.3]heptan-2-yl)urea], for which the “AC1.4 Human” value under setting [1] is 1.3 µM. Besides, the EC50 under setting [2] was 24.9 µM.

With `O=C(NCc1ccc(Cl)cc1)NC1CC2(C1)CN(S(=O)(=O)c1ccccc1Cl)C2` [Compound 216, 1-(4-chlorobenzyl)-3-(2-((2-chlorophenyl)sulfonyl)-2-azaspiro[3.3]heptan-6-yl)urea], the “AC1.4 Human” value under setting [1] was determined as 4.9 µM. Also, under setting [2], the EC50 came to 20.9 µM.

`COC(=O)N1CCN(C(=O)C2CC3(CC(NC(=O)NCc4ccc(Cl)cc4)C3)C2)CC1` (stereo not drawn) [Compound 233, Methyl 4-(6-(3-(4-chlorobenzyl)ureido)spiro[3.3]heptane-2-carbonyl)piperazine-1-carboxylate]: the “AC1.4 Human” value under setting [1] was determined as 0.9 µM. Besides, the EC50 under setting [2] came out at 1 µM.

On to `COc1ccc(CNC(=O)NC2CC3(C2)CC(C(=O)NC2Cc4ccccc4C2O)C3)cc1` (stereo not drawn) [Compound 94, N-(1-hydroxy-2,3-dihydro-1H-inden-2-yl)-6-(3-(4-methoxybenzyl)ureido)spiro[3.3]heptane-2-carboxamide], for which the “AC1.4 Human” value under setting [1] stood at 11.0 µM. The EC50 under setting [2] came out at 38.7 µM.

In the case of `O=C(CCCCCNC(=O)NCc1ccc(Cl)cc1)NC1CCCC1` [Compound 258, 6-(3-(4-chlorobenzyl)ureido)-N-cyclopentylhexanamide], the “AC1.4 Human” value under setting [1] came out at 3.8 µM. The EC50 under setting [2] amounted to 23.1 µM.

Regarding `O=C(NCc1ccc(Cl)cc1)NC1CC2(CC(CS(=O)(=O)c3cccnc3)C2)C1` (stereo not drawn) [Compound 353, 1-(4-chlorobenzyl)-3-(6-((pyridin-3-ylsulfonyl)methyl)spiro[3.3]heptan-2-yl)urea], the “AC1.4 Human” value under setting [1] stood at 5.3 µM. For the same compound, the EC50 under setting [2] is 16.9 µM.

Consider `O=C(CCCCCNC(=O)NCc1ccc(Cl)cc1)Nc1ccncc1` [Compound 263, 6-(3-(4-chlorobenzyl)ureido)-N-(pyridin-4-yl)hexanamide], for which the “AC1.4 Human” value under setting [1] is 1.4 µM. The EC50 under setting [2] came to 10.2 µM.

`COc1ccc(CNC(=O)NC2CC3(C2)CC(OCc2ccncc2)C3)cc1` (stereo not drawn) [Compound 349, 1-(4-methoxybenzyl)-3-(6-(pyridin-4-ylmethoxy)spiro[3.3]heptan-2-yl)urea]: the “AC1.4 Human” value under setting [1] amounted to 6.9 µM. The EC50 under setting [2] was 40.3 µM.

For the compound `O=C(NCc1ccc(Cl)cc1)N[C@H]1C[C@]2(CCN(C(=O)c3ccc(F)cc3)C2)C1` [Compound 167, 1-(4-chlorobenzyl)-3-((2r,4s)-6-(4-fluorobenzoyl)-6-azaspiro[3.4]octan-2-yl)urea], the “AC1.4 Human” value under setting [1] was 11.8 µM. Further, under setting [2], the EC50 turned out to be 27.5 µM.

In the case of `CC(C(=O)N(C)Cc1ccccc1)C1CC2(CC(NC(=O)NCc3ccc(Cl)cc3)C2)C1` (stereo not drawn) [Compound 237, N-benzyl-2-(6-(3-(4-chlorobenzyl)ureido)spiro[3.3]heptan-2-yl)-N-methylpropanamide], under setting [1], the “AC1.4 Human” value worked out at 2.4 µM. Also, under setting [2], the EC50 amounted to 2.6 µM.

For the compound `CN1CCN(CC2CC3(C2)CC(NC(=O)NCc2ccc(Cl)cc2)C3)C(c2ccccc2)C1` (stereo not drawn) [Compound 254, 1-(4-chlorobenzyl)-3-(6-((4-methyl-2-phenylpiperazin-1-yl)methyl)spiro[3.3]heptan-2-yl)urea], the “AC1.4 Human” value under setting [1] came out at 1.5 µM. Under setting [2], the EC50 worked out at 2.3 µM.

`Cc1ccc(C(=O)N2CC3(CC(NC(=O)NCc4cocn4)C3)C2)cc1` [Compound 228, 1-(2-(4-methylbenzoyl)-2-azaspiro[3.3]heptan-6-yl)-3-(oxazol-4-ylmethyl)urea]: under setting [1], the “AC1.4 Human” value turned out to be 1.9 µM. The EC50 under setting [2] was found to be 39.2 µM.

`COc1ccc(CNC(=O)NC2CC3(C2)CC(C(=O)NCC(C)(C)c2ccccn2)C3)cc1` (stereo not drawn) [Compound 65, 6-(3-(4-methoxybenzyl)ureido)-N-(2-methyl-2-(pyridin-2-yl)propyl)spiro[3.3]heptane-2-carboxamide]: the “AC1.4 Human” value under setting [1] was 2.6 µM. The EC50 under setting [2] was found to be 50 µM.

As for `COc1ccc(CNC(=O)NC2CC3(C2)CC(C(=O)Nc2ccccc2)C3)cc1` (stereo not drawn) [Compound 86, 6-(3-(4-methoxybenzyl)ureido)-N-phenylspiro[3.3]heptane-2-carboxamide], under setting [1], the “AC1.4 Human” value was found to be 4.7 µM. Besides, the EC50 under setting [2] stood at 49.4 µM.

For `COc1ccc(CNC(=O)NC2CC3(C2)CC(C(=O)N2CCN(CC4CC4)CC2)C3)cc1` (stereo not drawn) [Compound 112, 1-(6-(4-(cyclopropylmethyl)piperazine-1-carbonyl)spiro[3.3]heptan-2-yl)-3-(4-methoxybenzyl)urea], under setting [1], the “AC1.4 Human” value worked out at 3.0 µM. Further, under setting [2], the concentration giving a half-maximal response (EC50) was determined as 46.9 µM.
